This passage reports T/C results from PubChem BioAssay AID180 (DTP/NCI, 2004).

The structures appear in SMILES notation. “And” between values parts separate entries of the source, which are not always exact repeats. Equal entries are not always repeated.

The assay concerns BDF1 mice, Adenocarcinoma 755 s.c., tumor weight T/C. Kind of assay: NCI In Vivo Anticancer Drug Screen. Data for tumor model Adenocarcinoma 755 (subcutaneous) in B6D2F1 (BDF1) mice. The note with it: endpoint: mean tumor weight, higher = larger tumour. The method in brief: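 Transplantable tumor implanted; mice dosed with compound or vehicle; survival or tumor size recorded; ratio of treated to vehicle control reported.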

[1] abbreviates: dose: 50.0 mg/kg/injection, schedule: Q01DX011 (ip), vehicle: methylcellulose (MC).
Setting [2] is: dose: 100.0 mg/kg/injection, schedule: Q01DX011 (ip), vehicle: methylcellulose (MC).
Where [3] appears, read: dose: 200.0 mg/kg/injection, schedule: Q01DX011 (ip), vehicle: methylcellulose (MC).
[4] abbreviates: dose: 25.0 mg/kg/injection, schedule: Q01DX011 (ip), vehicle: methylcellulose (MC).
Setting [5] is: dose: 75.0 mg/kg/injection, schedule: Q01DX011 (ip), vehicle: methylcellulose (MC).

The term T/C denotes the result in the treated group divided by that in the control group, in per cent. Regarding `C[C@H]1C(=O)O[C@@H]2CCN3CC=C(COC(=O)[C@](C)(O)[C@@]1(C)O)[C@H]23`, the T/C is 70 % of control (dose: 12.5 mg/kg/injection, schedule: Q#A X022 (ip), vehicle: carboxymethylcellulose (CMC)); 65 % of control (dose: 12.5 mg/kg/injection, schedule: Q#A X022 (oral), vehicle: carboxymethylcellulose (CMC)); 45 % of control (dose: 22.5 mg/kg/injection, schedule: Q01DX011 (ip), vehicle: carboxymethylcellulose (CMC)); 74 % of control (dose: 25.0 mg/kg/injection, schedule: Q01DX011 (ip), vehicle: carboxymethylcellulose (CMC)); 69 % of control (dose: 25.0 mg/kg/injection, schedule: Q#A X022 (ip), vehicle: carboxymethylcellulose (CMC)); 44 % of control (dose: 25.0 mg/kg/injection, schedule: Q#A X022 (oral), vehicle: carboxymethylcellulose (CMC)). For the same compound, the T/C reads like this: (dose: 45.0 mg/kg/injection, schedule: Q01DX011 (ip), vehicle: carboxymethylcellulose (CMC)) 34 % of control; (dose: 50.0 mg/kg/injection, schedule: Q01DX011 (ip), vehicle: carboxymethylcellulose (CMC)) 61 % of control; (dose: 50.0 mg/kg/injection, schedule: Q01DX011 (oral), vehicle: saline) 36 % of control; (dose: 50.0 mg/kg/injection, schedule: Q#A X022 (ip), vehicle: carboxymethylcellulose (CMC)) 22 % of control; (dose: 50.0 mg/kg/injection, schedule: Q#A X022 (oral), vehicle: carboxymethylcellulose (CMC)) 7 % of control; (dose: 75.0 mg/kg/injection, schedule: Q03DX004 (ip), vehicle: carboxymethylcellulose (CMC)) 101 % of control. In addition, the T/C reads like this: (dose: 90.0 mg/kg/injection, schedule: Q01DX011 (ip), vehicle: carboxymethylcellulose (CMC)) 15 % of control; (dose: 100.0 mg/kg/injection, schedule: Q01DX011 (ip), vehicle: carboxymethylcellulose (CMC)) 42 % of control; (dose: 100.0 mg/kg/injection, schedule: Q01DX011 (oral), vehicle: carboxymethylcellulose (CMC)) 38 % of control; (dose: 100.0 mg/kg/injection, schedule: Q01DX011 (oral), vehicle: saline) 27 % of control; (dose: 100.0 mg/kg/injection, schedule: Q#A X022 (ip), vehicle: carboxymethylcellulose (CMC)) 15 % of control; (dose: 100.0 mg/kg/injection, schedule: Q#A X022 (oral), vehicle: carboxymethylcellulose (CMC)) 7 % of control. Also, the T/C reads like this: (dose: 150.0 mg/kg/injection, schedule: Q03DX004 (ip), vehicle: carboxymethylcellulose (CMC)) 46 % of control; (dose: 180.0 mg/kg/injection, schedule: Q01DX011 (ip), vehicle: carboxymethylcellulose (CMC)) 7 % of control; (dose: 180.0 mg/kg/injection, schedule: Q01DX011 (ip), vehicle: methylcellulose (MC)) 24 % of control; (dose: 200.0 mg/kg/injection, schedule: Q01DX011 (ip), vehicle: carboxymethylcellulose (CMC)) 13 % of control; (dose: 200.0 mg/kg/injection, schedule: Q01DX011 (oral), vehicle: carboxymethylcellulose (CMC)) 14 % of control; (dose: 200.0 mg/kg/injection, schedule: Q01DX011 (oral), vehicle: saline) 4 % of control. Moreover, the T/C is, setting by setting: (dose: 300.0 mg/kg/injection, schedule: Q03DX004 (ip), vehicle: carboxymethylcellulose (CMC)) 24 % of control; (dose: 400.0 mg/kg/injection, schedule: Q01DX011 (oral), vehicle: carboxymethylcellulose (CMC)) 6 % of control; (dose: 400.0 mg/kg/injection, schedule: Q01DX011 (oral), vehicle: saline) 5 % of control; (dose: 600.0 mg/kg/injection, schedule: Q03DX004 (ip), vehicle: carboxymethylcellulose (CMC)) 16 % of control.
Turning to `CCCCn1cnc2c(SCCc3ccccc3)nc(N)nc21`, the T/C is 37 % of control under setting [1], 42 % of control under setting [2] and 26 % of control under setting [3].
As to `CCCCn1cnc2c(SC)ncnc21`, the T/C runs as follows: (dose: 5.0 mg/kg/injection, schedule: Q01DX011 (ip), vehicle: saline) 89 % of control; (dose: 7.5 mg/kg/injection, schedule: Q01DX011 (ip), vehicle: saline) 119 % of control; (dose: 10.0 mg/kg/injection, schedule: Q01DX011 (ip), vehicle: saline) 65 % of control; (dose: 20.0 mg/kg/injection, schedule: Q01DX011 (ip), vehicle: saline) 20 % of control; (dose: 30.0 mg/kg/injection, schedule: Q01DX011 (ip), vehicle: saline) 26 % of control; (dose: 40.0 mg/kg/injection, schedule: Q01DX011 (ip), vehicle: saline) 14 % of control. Also, the T/C was 10 % of control (dose: 50.0 mg/kg/injection, schedule: Q01DX011 (ip), vehicle: saline); 5 % of control (dose: 53.0 mg/kg/injection, schedule: Q01DX011 (ip), vehicle: saline); 5 % of control (dose: 84.0 mg/kg/injection, schedule: Q01DX011 (ip), vehicle: saline); 4 % of control (dose: 125.0 mg/kg/injection, schedule: Q01DX011 (ip), vehicle: saline); 1 % of control (dose: 187.0 mg/kg/injection, schedule: Q01DX011 (ip), vehicle: saline).
Consider `CN(C)c1ccc(Nc2c3ccccc3nc3ccccc23)cc1`, for which the T/C is, setting by setting: (dose: 9.0 mg/kg/injection, schedule: Q01DX011 (ip), vehicle: saline) 70 % of control; (dose: 18.0 mg/kg/injection, schedule: Q01DX011 (ip), vehicle: saline) 91 % of control; (dose: 35.0 mg/kg/injection, schedule: Q01DX011 (ip), vehicle: saline) 75 % of control; (dose: 70.0 mg/kg/injection, schedule: Q01DX011 (ip), vehicle: saline) 39 % of control.
For the compound `Cc1ccc(CSc2nc(N)nc3nc[nH]c23)cc1C`, the T/C (dose: 31.25 mg/kg/injection, schedule: Q01DX011 (ip), vehicle: methylcellulose (MC)) was 37 % of control; the T/C (dose: 62.5 mg/kg/injection, schedule: Q01DX011 (ip), vehicle: methylcellulose (MC)) was 33 % of control; the T/C (dose: 125.0 mg/kg/injection, schedule: Q01DX011 (ip), vehicle: methylcellulose (MC)) is 15 % of control; the T/C (dose: 250.0 mg/kg/injection, schedule: Q01DX011 (ip), vehicle: methylcellulose (MC)) was 1 % of control and 7 % of control; the T/C (dose: 350.0 mg/kg/injection, schedule: Q01DX011 (ip), vehicle: methylcellulose (MC)) was 5 % of control.
With `CC1CCCCN1/N=N/c1nc2c([nH]1)c(=O)n(C)c(=O)n2C` (stereo not drawn), the T/C reads like this: under setting [4], 59 % of control; under setting [5], 68 % of control.
For `CC1CN1P(=O)(N1CC2CCC(CC2)C1)N1CC1C` (stereo not drawn), the T/C runs as follows: (dose: 7.0 mg/kg/injection, schedule: Q01DX011 (ip), vehicle: saline) 109 % of control; (dose: 14.0 mg/kg/injection, schedule: Q01DX011 (ip), vehicle: saline) 87 % of control; (dose: 28.0 mg/kg/injection, schedule: Q01DX011 (ip), vehicle: saline) 87 % of control.
Turning to `O=C1C(Cl)=C(Cl)C(=O)C2=C1C1c3ccccc3C2c2ccccc21`, the T/C by setting is: (dose: 37.0 mg/kg/injection, schedule: Q01DX011 (ip), vehicle: carboxymethylcellulose (CMC)) 83 % of control; (dose: 37.5 mg/kg/injection, schedule: Q01DX011 (ip), vehicle: carboxymethylcellulose (CMC)) 117 % of control; (dose: 75.0 mg/kg/injection, schedule: Q01DX011 (ip), vehicle: carboxymethylcellulose (CMC)) 113 % of control and 114 % of control; (dose: 150.0 mg/kg/injection, schedule: Q01DX011 (ip), vehicle: carboxymethylcellulose (CMC)) 89 % of control and 84 % of control; (dose: 300.0 mg/kg/injection, schedule: Q01DX011 (ip), vehicle: carboxymethylcellulose (CMC)) 83 % of control; (dose: 325.0 mg/kg/injection, schedule: Q01DX011 (ip), vehicle: carboxymethylcellulose (CMC)) 41 % of control. For the same compound, the T/C (dose: 400.0 mg/kg/injection, schedule: Q01DX011 (ip), vehicle: carboxymethylcellulose (CMC)) is 33 % of control and the T/C (dose: 600.0 mg/kg/injection, schedule: Q01DX011 (ip), vehicle: carboxymethylcellulose (CMC)) is 15 % of control.
Regarding `c1cc(CSc2ncnc3nc[nH]c23)ccn1`, the T/C reads like this: (dose: 3.1 mg/kg/injection, schedule: Q01DX011 (ip), vehicle: methylcellulose (MC)) 72 % of control; (dose: 6.25 mg/kg/injection, schedule: Q01DX011 (ip), vehicle: methylcellulose (MC)) 39 % of control; (dose: 12.5 mg/kg/injection, schedule: Q01DX011 (ip), vehicle: methylcellulose (MC)) 29 % of control; under setting [4], 16 % of control and 25 % of control; under setting [1], 12 % of control; under setting [2], 7 % of control. In addition, the T/C under setting [3] is 2 % of control.
As for `O=C(CCBr)NCCCNC(=O)CCBr`, the T/C is 54 % of control under setting [4] and 37 % of control under setting [5].
